We go through seven molecules from patent publication US6156754A, “Glycoconjugates of modified camptothecin derivatives (A-or B-ring linkage)” (Bayer Aktiengesellschaft, priority 1996, dated 2000).

Converted amounts (≈) assume the structure as drawn. Structures can show the parent of a compound that is named as a salt. Some results are limits rather than exact numbers.

One data set relates to SW 480. Kind of data set: Growth inhibition (MTT) test, cytotoxic action on SW 480. It counts as cell-based, human. As to conditions: SW 480 cell line, growth checked after day 3 and day 6. How it is done:
(§1) 1. Growth Inhibition Test for the Determination of the Cytotoxic Properties
(§2) The human large intestine cell lines SW 480 and HT 29 (ATCC No. CCL 228 and HBT 38) and the mouse melanoma cell line B 16 F 10 were grown in Roux dishes in RPMI 1640 medium with addition of 10% FCS. They were then trypsinized and taken up in RPMI plus 10% FCS to a cell count of 50,000 cells/ml. 100 μl of cell suspension/well were added to a 96 microwell plate and incubated for 1 day at 37° C. in a CO2 incubator. A further 100 μl of RPMI Medium and 1 μl of DMSO containing the test substances were then added. The growth was checked after day 3 and day 6. To this end, 40 μl of MTT solution (3-(4,5-dimethylthiazol-2-yl)-2,5-diphenyl-tetrazolium bromide) having a starting concentration of 5 mg/ml of H2 O were added to each microwell. Incubation was carried out for 5 hours in a CO2 incubator at 37° C. The medium was then aspirated and 100 μl of i-propanol/well were added. After shaking for 30 min with 100 μl of H2 O, the extinction was measured at 540 nm using a Titertek Multiscan MCC/340 (Flow).
(§3) The cytotoxic action is indicated in Table 1 as the IC50 value (dose which inhibits the cell growth to 50% of the cell growth of the control) in each case for the SW 480 and HT 29 and B16F10 cell lines: […]

The subject of a further data set is B16F10. Kind of data set: Growth inhibition (MTT) test, cytotoxic action on B16F10. Type of data set: cell-based, mouse. As to conditions: B16F10 cell line, growth checked after day 3 and day 6. As to the method:
as §1, §2, §3

Another data set relates to HT 29. Kind of data set: Growth inhibition (MTT) test, cytotoxic action on HT 29. It counts as cell-based, human. The following applies: HT 29 cell line, growth checked after day 3 and day 6. How it is done: as §1, §2, §3
Data set [1] deals with large-cell lung carcinoma LXFL 529. Kind of data set: In vivo inhibition of tumour growth in the nude mouse model (LXFL 529 xenograft). Set-up: species or system human tumour in athymic nude mice (NMRI nu/nu). The following applies: for Relative body weight on day 7 / Relative tumour volume on day 14 / Survival time: i.p. day 1, 2, 3; for Relative body weight on day 7: control 102; for Relative tumour volume on day 14: control 691; for Survival time: each of five mice. How it is done: (§4) 3. In Vivo Inhibition of Tumour Growth in the Nude Mouse Model
(§5) For all in vivo experiments for investigation of the inhibition of tumour growth athymic nude mice (NMRI nu/nu strain) were used. The selected large-cell lung carcinoma LXFL 529 was grown by serial passage in nude mice. The human origin of the tumour was confirmed by isoenzymatic and immunohistochemical methods.
(§6) The tumour was implanted subcutaneously into both flanks of 6 to 8 week old nu/nu nude mice. The treatment was started, depending on the doubling time, as soon as the tumours had reached a diameter of 5-7 mm. The mice were assigned to the treatment group and the control group (5 mice per group with 8-10 assessable tumours) by randomization. The individual tumours of the control group all grew progessively.
(§7) The size of the tumours was measured in two dimensions by means of a slide gauge. The tumour volume, which correlated well with the cell count, was then used for all evaluations. The volume was calculated according to the formula "length×breadth×breadth/2" ([a×b^2 ]/2, a and b represent two diameters at right angles).
(§8) The values of the relative tumour volume (RTV) were calculated for each individual tumour by dividing the tumour size on day X with the tumour size on day 0 (at the time of randomization). The mean values of the RTV were then used for the further evaluation.
(§9) The inhibition of the increase of the tumour volume (tumour volume of the test group/control group, T/C, in per cent) was the final measured value.
(§10) The administration of the compounds was carried out intraperitoneally (i.p.) on day 1, 2 and 3 after randomization.

Assay in data set [2]: as above
The following applies: mouse, in vivo, ip; nude mice, i.p. day 1, 2, 3; read-out: maximum tolerable dose (MTD). Details: species or system human tumour in athymic nude mice (NMRI nu/nu). How it is done:
as §4, §5, §6, §7, §8, §9, §10

The test system of a further data set is Bone marrow cells. Kind of data set: Haematopoietic activity: bone marrow stem cell colony formation. Type of data set: cell-based, mice. As to the method: 2. Haematopoietic Activity of Glycoconjugates in Comparison with the Underlying Active Compound
Bone marrow cells are washed out of mice femurs. 10^5 cells are incubated at 37° C. and 7% CO2 in McCoy 5A medium (0.3% agar) together with recombinant murine GM-CSF (Genzyme; stem cell colony formation) and the substances (10^-4 to 100 μg/ml). 7 days later, the colonies ([…]) and clusters (17-50 cells) are counted.
As shown in Tab. 2 with reference to Example 2.1, the glycoconjugates investigated show, compared with the underlying active compound, an inhibition of the bone marrow stem cell proliferation which is reduced approximately by the factor 100.

Consider `CCC1(O)C(=O)OCc2c1cc1n(c2=O)Cc2c-1nc1cc3c(cc1c2CN1CCN(C(=O)[C@H](C)NC(=O)[C@H](CCCCNC(=S)Nc2ccc(O[C@H]4O[C@@H](C)[C@@H](O)[C@@H](OC)[C@@H]4O)cc2)NC(=S)Nc2ccc(O[C@H]4O[C@@H](C)[C@@H](O)[C@@H](OC)[C@@H]4O)cc2)CC1)OCCO3` (mixture of isomers) [Example 3.1], for which the IC50 in the data set on SW 480 is 0.08 nM; in the data set with B16F10 it was 0.5 nM; in the data set with HT 29 it was 0.06 nM.
Take `CCC1(O)C(=O)OCc2c1cc1n(c2=O)Cc2c-1nc1cc3c(cc1c2CN1CCN(C(=O)[C@H](C)NC(=O)[C@H](CCCCN)NC(=S)Nc2ccc(O[C@H]4O[C@@H](C)[C@@H](O)[C@@H](OCC(=O)O)[C@@H]4O)cc2)CC1)OCCO3` (mixture of isomers) [Example 3.3, 10,11-(Ethylenedioxy)-7-{1-[N^α -(O-(3-O-carboxymethyl-β-L-fucopyranosyl)-4-hydroxy-phenylaminothiocarbonyl]-L-lysyl-L-alanyl]-piperazin-4-yl-methyl}-20(R/S)-camptothecin, hydrochloride]: the IC50 with SW 480 worked out at 0.25 nM; in the data set with HT 29, 0.1 nM.
`CC[C@@]1(O)C(=O)OCc2c1cc1n(c2=O)Cc2c-1nc1ccccc1c2COC(=O)[C@H](C)NC(=O)[C@H](CCCCNC(=S)Nc1ccc(O[C@H]2O[C@@H](C)[C@@H](O)[C@@H](OC)[C@@H]2O)cc1)NC(=S)Nc1ccc(O[C@H]2O[C@@H](C)[C@@H](O)[C@@H](OC)[C@@H]2O)cc1` [Example 1.1, 7-{N^α,N^ε -bis-[O-(3-O-Methyl-β-L-fucopyranosyl)-4-hydroxy-phenylaminothiocarbonyl]-L-lysyl-L-alanyloxymethyl}-camptothecin]: the IC50 in the data set on SW 480 is 0.015 nM; in the data set with B16F10, 0.18 nM; with HT 29, 0.025 nM. Also, the “Relative body weight on day 7” value in data set [1] (3.125 mg/kg/day) was 93 % of day 0; in data set [1] (6.25 mg/kg/day) it was 93 % of day 0; in data set [1] (12.5 mg/kg/day (MTD)), 72 % of day 0. The “Relative tumour volume on day 14” value in data set [1] (3.125 mg/kg/day), in data set [1] (6.25 mg/kg/day) and in data set [1] (12.5 mg/kg/day (MTD)) was 0.1 % of day 0 each time. Also, the Survival time in data set [1] (3.125 mg/kg/day), in data set [1] (6.25 mg/kg/day) and in data set [1] (12.5 mg/kg/day (MTD)) was greater than 21 days throughout. Besides, the “therapeutic efficacy (remission of the tumour)” value in data set [1] (at MTD, 1/2 MTD and 1/4 MTD) was “complete remission of the tumour”. Also, the MTD – broadly, the highest dose tested that stayed within the study's limit of toxicity – in data set [2] stood at 12.5 mg/kg/day.
As to `CC[C@@]1(O)C(=O)OCc2c1cc1n(c2=O)Cc2c-1nc1ccccc1c2COC(=O)[C@@H](NC(=O)[C@H](CCCCN)NC(=S)Nc1ccc(O[C@H]2O[C@@H](C)[C@@H](O)[C@@H](OCC(=O)O)[C@@H]2O)cc1)C(C)C` [Example 1.3, 7-{N^α -[O-(3-O-Carboxymethyl-β-L-fucopyranosyl)-4-hydroxy-phenylamino-thiocarbonyl]-L-lysyl-L-valyloxymethyl}-camptothecin, hydrochloride], the results for the IC50 in the data set with SW 480 and in the data set on HT 29 were 0.04 nM and 0.03 nM, respectively.
Consider `CC[C@@]1(O)C(=O)OCc2c1cc1n(c2=O)Cc2c-1nc1ccccc1c2COC(=O)[C@@H](NC(=O)[C@H](CCCCN)NC(=S)Nc1ccc(O[C@H]2O[C@@H](C)[C@@H](O)[C@@H](OC)[C@@H]2O)cc1)C(C)C` [Example 1.4, 7-{N^α -[O-(3-O-Methyl-β-L-fucopyranosyl)-4-hydroxy-phenylamino-thiocarbonyl)-L-lysyl-L-valyoxymethyl}-camptothecin, Hydrochloride], for which the IC50 in the data set with SW 480 amounted to 0.03 nM; with B16F10, 0.2 nM; in the data set on HT 29, 0.04 nM.
With `CC[C@@]1(O)C(=O)OCc2c1cc1n(c2=O)Cc2cc3c(NC(=O)[C@H](C)NC(=O)[C@H](CCCCNC(=S)Nc4ccc(O[C@H]5O[C@@H](C)[C@@H](O)[C@@H](OC)[C@@H]5O)cc4)NC(=S)Nc4ccc(O[C@H]5O[C@@H](C)[C@@H](O)[C@@H](OC)[C@@H]5O)cc4)cccc3nc2-1` [Example 2.1, 9-{N^α,N^ε -bis-[O-(3-O-Methyl-β-L-fucopyranosyl)-4-hydroxy-phenylamino-thiocarbonyl]-L-lysyl-L-alanyl-amino}-camptothecin], the IC50 in the data set on SW 480 was 0.2 nM; in the data set with B16F10, 2 nM; in the data set with HT 29 it was 0.06 nM. Moreover, the “reduction of inhibition of bone marrow stem cell proliferation compared with the underlying active compound (factor)” value in the data set on Bone marrow cells (glycoconjugate vs underlying active compound (2.1.a)) is on record as roughly 100. Further, the “IC50 (inhibition of bone marrow stem cell proliferation)” value in the data set on Bone marrow cells (mouse bone marrow cells with GM-CSF, 7 days) stood at 170 ng/mL.
As to `CC[C@@]1(O)C(=O)OCc2c1cc1n(c2=O)Cc2cc3c(N)cccc3nc2-1` [Example 2.1.a, 9-Amino-camptothecin, reference compound], the IC50 in the data set with Bone marrow cells (Bone marrow cell, 168 h, mouse bone marrow cells with GM-CSF, 7 days, read-out: IC50 (inhibition of bone marrow stem cell proliferation)) worked out at 1.6 ng/mL (≈ 4.4 nM).
